The values below come from US11771715B2 (Orna Therapeutics, Inc., priority 2019, dated 2023).

For data set [1] the following is noted: Table 3, representative compounds of Formula (III); cited from earlier work.
Data set [2] has as its system 1C1C7 cells. As to the kind of experiment: 5′ UTR variants in 1C1C7 cells (Ex. 54). The class given is cell-based. The following applies: CK IRES with 5′ UTR variants. From the text: This example describes modifications of circular RNAs by inserting 5′ UTR variants. […] 1C1C7 cells were transfected with the circular RNAs.
In data set [3] the test system is 1C1C7 cells. As to the kind of experiment: GLuc luminescence and functional stability by IRES in 1C1C7 cells (Ex. 8A). Conditions: 24 hours.
Another data set relates to HEK293 cells. In words: GLuc luminescence by IRES in HEK293 cells (Ex. 8A). Conditions: 24 hours, 100 ng circularization reaction.
The test system of data set [4] is 1C1C7 cells. As to the kind of experiment: Expression of anti-murine CD19 CAR by IRES variant in lipotransfected 1C1C7 cells (Ex. 41). The class given is cell-based. Conditions: 24 hours after lipotransfection. The procedure: After 24 hours, 1C1C7 cells were incubated with His-tagged recombinant murine CD19 (Sino Biological) protein, then stained with a secondary anti-His antibody. Afterwards, the cells were analyzed via flow cytometry.

In the case of `CCCCCCCCCCCCC(CCCCCCCCCC)C(=O)OCCCCCCN(CCCCO)CCCCOC(=O)C(CCCCCCCCCC)CCCCCCCCCCCC` (stereo not drawn) [III-27], the pKa in data set [1] is 5.77.
Turning to “UTR2: 5′ UTR variant: canonical Kozak with "a 36-nucleotide unstructured/low GC spacer sequence" added (DNA AATAAGAGAGAAAAGAAGAGTAAGAAGAAATATAAGAGCCACC; expressed or natural sequence)”, the “translation, luminescence” value in the data set on 1C1C7 cells [2] is reported as “more effective”.
In the case of “UTR3: 5′ UTR variant: "a higher-GC/structured spacer with a kozak sequence" (DNA CGAACTAGTATTCTTCTGGTCCCCACAGACTCAGAGAGAACCCGCCACC; expressed or natural sequence)”, the “translation, luminescence” value with 1C1C7 cells [2] is “did not show the same benefit”.

B1: Salivirus A SZ-1 (nucleic acid)
DNA: TCTGTCCTCACCCCATCTTCCCTTCTTTCCTGCACCGTTACGCTTACTCGCATGTGCATTGAGTGGTGCACGTGCTTGAACAAACAGCTACACTCACATGGGGGCGGGTTTTCCCGCCCTGCGGCCTCTCGCGAGGCCCACCCCTCCCCTTCCTCCCATAACTACAGTGCTTTGGTAGGTAAGCATCCTGATCCCCCGCGGAAGCTGCTCACGTGGCAACTGTGGGGACCCAGACAGGTTATCAAAGGCACCCGGTCTTTCCGCCTTCAGGAGTATCCCTGCTAGTGAATTCTAGTAGGGCTCTGCTTGGTGCCAACCTCCCCCAAATGCGCGCTGCGGGAGTGCTCTTCCCCAACTCACCCTAGTATCCTCTCATGTGTGTGCTTGGTCAGCATATCTGAGACGATGTTCCGCTGTCCCAGACCAGTCCAGTAATGGACGGGCCAGTGTGCGTAGTCGTCTTCCGGCTTGTCCGGCGCATGTTTGGTGAACCGGTGGGGTAAGGTTGGTGTGCCCAACGCCCGTACTTTGGTGATACCTCAAGACCACCCAGGAATGCCAGGGAGGTACCCCGCTTCACAGCGGGATCTGACCCTGGGCTAATTGTCTACGGTGGTTCTTCTTGCTTCCACTTCTTTCTACTGTTCATG
For B1, the luminescence in supernatant result in the data set on 1C1C7 cells [3] is reported as “produced high luminescence”.

B2: Crohivirus B IRES: one of the "selected IRES sequences" modified (e.g., truncated); "SEQ ID NOs: 348-389" (nucleic acid)
DNA: GTATAAGAGACAGGTGTTTGCCTTGTCTTCGGACTGGCATCTTGGGACCAACCCCCCTTTTCCCCAGCCATGGGTTAAATGGCAATAAAGGACGTAACAACTTTGTAACCATTAAGCTTTGTAATTTTGTAACCACTAAGCTTTGTGCACATAATGTAACCATCAAGCTTGTTAGTCCCAGCAGGAGGTTTGCATGCTTGTAGCCGAAATGGGGCTCGACCCCCCATAGTAGGATACTTGATTTTGCATTCCATTGTGGACCTGCAAACTCTACACATAGAGGCTTTGTCTTGCATCTAAACACCTGAGTACAGTGTGTACCTAGACCCTATAGTACGGGAGGACCGTTTGTTTCCTCAATAACCCTACATAATAGGCTAGGTGGGCATGCCCAATTTGCAAGATCCCAGACTGGGGGTCGGTCTGGGCAGGGTTAGATCCCTGTTAGCTACTGCCTGATAGGGTGGTGCTCAACCATGTGTAGTTTAAATTGAGCTGTTCATATACC
modifications: Crohivirus B
Take B2: the luminescence in supernatant entry with HEK293 cells is given as “produced the highest luminescence”.

B3: parabovirus: "IRES sourced from the indicated virus" in circular RNA encoding anti-murine CD19 CAR (nucleic acid, listed as Parabovirus sp.)
DNA: TGAACCGTTACGCACCACTCAGTTGGTGTTTGGTGGCACCAATGATGGAACAAAAGGCTACACCACTTGGGCTACGGCCCGCGCCACCTTGTGGCGCAAAGACATTAGAAGAATAGCATACCGCCCACTAGGGCCCTGCAGCCAGCAGGGTAACGGGCAAGCACTTCTGTCTCCCCGGTAGAACGGTATAGGCTGTACCCACGGCCGAAAACTGAACTATCGTTACCCGACTCCGTACTTCGCAAAGCTTAGTAGGAAACTGGAAAGTTCGAGTTATTGACCCGGAGTGTTCCCCCCACTCCAGAAACGCGTGATGAGGGTTGCCACCCCGACCATGGCGACATGGTGGGCATCCCTGCGCTGGCACGCGGCCTCTAAGAGGATAACTCGCTCCTACTGGTAACCGAAGAGCCCCGTGAGCTACGGTTTATTCCTCCGCCTCCCTGAATGCGGCTAATCCTAACCCATGAGCAGTTGCCATAGATCCATATGGTGGACTGTCGTAACGCGTAAGTTGTGGGCGGAACCGACTACTTTGGGATGGCGTGTTTCCTTGTTTTCTCCATTTGTTGTTGTATGGTGACAAGTTATAGATCTCGATCTATAGCGTTTCTTGAGAGATTTCCAAACATTTATTCAAGTCGTACAATTCTTGTGTTTAAGCAGTACAGTGTAAGG
In the case of B3, the “expression of anti-mouse CD19 CAR” value in the data set with 1C1C7 cells [4] was “capable of driving expression”.
